Data taken from ChEMBL document CHEMBL3137667, “[Drug-induced liver injury; fourteenth updated edition of the bibliographic database of liver injuries and related drugs]” (Gastroenterol Clin Biol, 2004).

Tests used:
[1] = Highest frequency of moderate liver toxicity observed during clinical trials, expressed as a percentage. [column '% BIOL' in source]; conditions: human
[2] = Highest frequency of acute liver toxicity observed during clinical trials, expressed as a percentage. [column '% AIGUE' in source]; conditions: human
[3] = Times to onset, minimal and maximal, observed in the indexed observations. [column 'DELAI' in source]; conditions: human
[4] = human, serum
[5] = human, serum; remark: listed apart in the source
[6] = human
[7] = human; remark: listed apart in the source
[8] = human; remark: listed apart in the source
[9] = human, serum, 4383 h
[10] = human; remark: listed apart in the source
[11] = human; remark: listed apart in the source
[12] = human; remark: listed apart in the source
[13] = human; remark: listed apart in the source
[14] = human; remark: listed apart in the source
[15] = human; remark: listed apart in the source
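Throughout, for Hepatotoxicity (association with vascular disease): count of indexed literature references reporting vascular liver injury in humans, e.g. peliosis hepatitis, hepatic veno-occlusive disease or Budd-Chiari syndrome.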
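Throughout, for Hepatotoxicity (benign tumour): value is a count of indexed literature references citing a benign tumour confirmed by histopathology.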
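Throughout, for Hepatotoxicity (choleostasis): human cholestatic liver injury, shown by histopathology or by peak ALT or AST elevation over alkaline phosphatase ratio below 2, value counts indexed literature reports.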
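Throughout, for Hepatotoxicity (chronic liver disease): chronic liver injury confirmed by histopathology or persistently raised serum aminotransferase activity beyond 6 months, value given as the count of indexed literature references.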
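Throughout, for Hepatotoxicity (cirrhosis): value is a count of indexed literature references reporting cirrhosis confirmed by histopathology.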
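Throughout, for Hepatotoxicity (cytolytic): human cytolytic liver injury, shown by histopathology or by a ratio above 5 of peak ALT or AST elevation to alkaline phosphatase elevation, value counts indexed references.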
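Throughout, for Hepatotoxicity (granulomatous hepatitis): value is a count of indexed literature references reporting granulomatous liver disease confirmed by histopathology.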
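Throughout, for Hepatotoxicity (malignant tumour): malignant tumour confirmed by histopathology, value gives the count of indexed literature references reporting it.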
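Throughout, for Hepatotoxicity (severe hepatitis): human clinical data: severe hepatitis, meaning potentially life-threatening liver failure or clinically observed cases, the value counts how many indexed literature references report it.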
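Throughout, for Hepatotoxicity (steatosis): steatosis confirmed by histopathology, value is the count of indexed references.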

Row | Structure (SMILES) | Hepatotoxicity (moderate) [1] | Hepatotoxicity (acute) [2] | Hepatotoxicity (time to onset) [3] | Hepatotoxicity (moderate) [4] | Hepatotoxicity (acute) [5] | Hepatotoxicity (cytolytic) [6] | Hepatotoxicity (choleostasis) [7] | Hepatotoxicity (severe hepatitis) [8] | Hepatotoxicity (chronic liver disease) [9] | Hepatotoxicity (cirrhosis) [10] | Hepatotoxicity (granulomatous hepatitis) [11] | Hepatotoxicity (association with vascular disease) [12] | Hepatotoxicity (steatosis) [13] | Hepatotoxicity (malignant tumour) [14] | Hepatotoxicity (benign tumour) [15] | other results
1 | CO[C@@H]1[C@@H](O[C@@H]2O[C@H](C)[C@@H](O[C@H]3C[C@@](C)(O)[C@@H](OC(=O)CC(C)C)[C@H](C)O3)[C@H](N(C)C)[C@H]2O)[C@@H](CC=O)C[C@@H](C)[C@@H](O)/C=C/C=C/C[C@@H](C)OC(=O)C[C@H]1OC(C)=O [JOSAMYCIN] | 20% | 0% | 5 days - 2 weeks | 5 | 9 | 6 | 5 | 0 | 0 | 0 | 0 | 0 | 0 | 0 | 0 | 
2 | CSc1nc2cc(Cl)c(Oc3cccc(Cl)c3Cl)cc2[nH]1 [TRICLABENDAZOLE] | 0% | 0.7% | 3 days | 0 | 1 | 0 | 1 | 0 | 0 | 0 | 0 | 0 | 0 | 0 | 0 | 
3 | CCCCCCCCCCCCCCCCOP(=O)([O-])OCC[N+](C)(C)C [MILTEFOSINE] | 55% | 2.2% | 2 weeks | 5 | 3 | 3 | 0 | 0 | 0 | 0 | 0 | 0 | 0 | 0 | 0 | 
4 | O=C(O)Cc1cn(-c2ccccc2)nc1-c1ccc(Cl)cc1 [LONAZOLAC] | 0% | 1.3% | 1 month | 0 | 1 | 0 | 0 | 0 | 0 | 0 | 0 | 0 | 0 | 0 | 0 | 
5 | O=C1C(CC[S+]([O-])c2ccccc2)C(=O)N(c2ccccc2)N1c1ccccc1 (stereo not given) [SULFINPYRAZONE] |  |  | 10 days | 0 | 1 | 0 | 1 |  | 0 | 0 | 0 | 0 | 0 | 0 | 0 | Hepatotoxicity (moderate) ([1]; Liver): 0%; Hepatotoxicity (acute) ([2]; Liver): 0%; Hepatotoxicity (severe hepatitis) ([8]; Liver): 0
6 | Cc1ccc(-c2cc(C(F)(F)F)nn2-c2ccc(S(N)(=O)=O)cc2)cc1 [CELECOXIB] |  |  | 2 days - 3 weeks | 3 | 8 |  |  |  | 0 | 0 |  | 0 | 0 | 0 | 0 | Hepatotoxicity (moderate) ([1]; Liver): 2%; Hepatotoxicity (acute) ([2]; Liver): 0%; Hepatotoxicity (cytolytic) ([6]; Liver): 5; Hepatotoxicity (choleostasis) ([7]; Liver): 4; Hepatotoxicity (severe hepatitis) ([8]; Liver): 0; Hepatotoxicity (granulomatous hepatitis) ([11]; Liver): 0
7 | CN1CCC(=C2c3ccccc3CCc3sccc32)CC1 [PIZOTYLINE] | 0% | 0% | 12 days | 0 | 1 | 0 | 1 | 0 | 0 | 0 | 0 | 0 | 0 | 0 | 0 | 
8 | CCN(CC)CCn1c(-c2ccccc2)noc1=N [IMOLAMINE] | 0% | 0% | 2 months | 0 | 0 | 0 | 0 | 0 | 1 | 0 | 0 | 0 | 0 | 0 | 0 | 
9 | CCOC(=O)[C@H](CCc1ccccc1)N[C@H]1CCc2ccccc2N(CC(=O)O)C1=O [BENAZEPRIL] | 0% | 0% | 14 months | 0 | 2 | 1 | 0 | 1 | 0 | 0 | 0 | 0 | 0 | 0 | 0 | 
10 | N[C@@H](C(=O)N[C@@H]1C(=O)N2C(C(=O)O)=C(Cl)CS[C@H]12)c1ccccc1 [CEFACLOR ANHYDROUS] | 10.7% | 2.2% | 8 days | 20 | 2 | 1 | 2 | 0 | 0 | 0 | 0 | 0 | 0 | 0 | 0 | 
11 | Nc1nc(Cl)nc2c1ncn2[C@H]1C[C@H](O)[C@@H](CO)O1 [CLADRIBINE] | 13% | 9.1% | 2 weeks - 6 months | 4 | 2 | 1 | 0 | 0 | 0 | 0 | 0 | 1 | 0 | 0 | 0 | 
